Test results from patent US7220824B1, “Integrin-mediated drug targeting” (Bayer Aktiengesellschaft, priority 2000, dated 2007).

Key:
[1] = test system: hemopoietic stem cells (bone marrow cells); test: CSF-induced proliferation of hemopoietic stem cells; format: cell-based, mice; details: Mus musculus, Bone marrow cell, 168 h, read-out: IC50, CSF-induced proliferation of hemopoietic stem cells, mouse bone marrow cells, recombinant murine GM-CSF, 7 days, colony count
Procedure: Bone marrow cells are flushed out of the femur of mice. 10^5 cells are incubated in McCoy 5A medium (0.3% agar) together with recombinant murine GM-CSF (Genzyme; parent cell colony formation) and the substances (10^−4 to 100 μg/ml) at 37° C. and 7% CO2. 7 days later, the colonies (<50 cells) and clusters (17–50 cells) are counted.

[2] = molecular target: T1, αvβ3 receptor (αvβ3 from human A375 cells) (Homo sapiens, UniProt P05106+P06756); test: αvβ3 binding test (echistatin displacement, WGA SPA beads)
T1 construct: αvβ3 from human A375 cells was purified analogously to a procedure which was described by Wong et al; endogenous in cells; host or cells: human A375 cells; the receptor was purified from the cells and used detergent-solubilised (n-octyl-glucopyranoside)
Procedure: αvβ3 from human A375 cells was purified analogously to a procedure which was described by Wong et al. (Molecular Pharmacology, 50, 529–537 (1996)). In each case, 10 μl of αvβ3 (5 ng) in TBS pH 7.6, 2 mM CaCl2, 1 mM MgCl2, 1% n-octyl-glucopyranoside (Sigma); 10 μl of test substance in TBS pH 7.6, 0.1% DMSO and 45 μl of TBS pH 7.6, 2 mM CaCl2, 1 mM MgCl2, 1 mM MnCl2 were incubated at room temperature for 1 h. In each case, 25 μl of WGA SPA beads (Amersham, 4 mg/ml) and 10 μl of echistatin ([…], Amersham, chloramine-T labelled) were then added. After 16 hours at room temperature, the samples were measured in a scintillation measuring apparatus (Wallac 1450).

[3] = test system: MCF7; test: Growth inhibition test (MTT), cytotoxic action on tumour cell lines; format: cell-based; details: Homo sapiens, MCF7, 144 h, read-out: IC50 values of the cytotoxic action on tumour cell lines, MCF7
Procedure: (§1) The human large intestine cell lines SW 480 and HT29 (ATCC No. CCL 228 and HTB38), the human breast cell lines MDA-MB 231, MCF-7 and BT20 (ATCC No. HTB-, 26, 22 and 23) and the mouse melanoma cell line B16F 10 (CRL 6475) were grown to confluence in Roux dishes in RPMI 1640 medium with addition of 10% FCS. They were then trypsinized and taken up in RPMI plus 10% FCS to a cell count of 50,000 cells or, for B16F10, 20,000 cells per ml. 100 μl of cell suspension/well were added to a 96 microwell plate and incubated at 37° C. for 1 day in a CO2 incubator. A further 100 μl of RPMI medium and 1 μl of DMSO were then added with the test substances. The growth was checked after day 6. For this, 25 μl of MTT solution (3-(4,5-dimethylthiazol-2-yl)-2,5-diphenyltetrazolium bromide) was added to each well at a starting concentration of 5 mg/ml of H2O. The plate was incubated at 37° C. for 5 hours in a CO2 incubator. The medium was then aspirated and 100 μl of i-propanol/well were added. After shaking with 100 μl of H2O for 30 min, the extinction was measured at 595-nm using a Multiplate Reader (BIO-RAD 3550-UV).
(§2) The cytostatic action is indicated in Table 2 as an IC50 value, in each case for the individual cell lines.

[4] = test system: MDA-MB 231; test: as above; format: cell-based; details: Homo sapiens, MDA-MB-231, 144 h, read-out: IC50 values of the cytotoxic action on tumour cell lines, MDA-MB 231
Procedure: as §1, §2

[5] = test system: SW480; test: as above; format: cell-based; details: Homo sapiens, SW480, 144 h, read-out: IC50 values of the cytotoxic action on tumour cell lines, SW480
Procedure: as §1, §2

[6] = test system: BT20; test: as above; format: cell-based; details: Homo sapiens, BT-20, 144 h, read-out: IC50 values of the cytotoxic action on tumour cell lines, BT20
Procedure: as §1, §2

[7] = test system: B16F10; test: as above; format: cell-based; details: Mus musculus, B16-F10, 144 h, read-out: IC50 values of the cytotoxic action on tumour cell lines, B16F10
Procedure: as §1, §2

[8] = test system: HT 29; test: as above; format: cell-based; details: Homo sapiens, HT-29, 144 h, read-out: IC50 values of the cytotoxic action on tumour cell lines, HT 29
Procedure: as §1, §2

[9] = test system: human breast cancer xenograft MX1; test: In-vivo inhibition of tumour growth using a nude mouse model; design: species or system athymic nude mice (NMRI nu/nu strain); details: subcutaneous MX1 xenograft in nude mice; 40 mg/kg given on day 1–3 and 14–16; T/C in percent
Text: In all in-vivo experiments for investigating the inhibition of tumour growth, athymic nude mice (NMRI nu/nu strain) were used. The tumour was developed by serial passage in nude mice. The human origin of the tumour was confirmed by isoenzymatic and immunohistochemical methods.
The tumour was implanted subcutaneously in both flanks of nu/nu nude mice 6 to 8 weeks old. The treatment was started, depending on the doubling time, as soon as the tumours had reached a diameter of 5–7 mm. The mice were assigned to the treatment group or the control group (5 mice per group having 8–10 assessable tumours) by randomization. The individual tumours of the control group all grew progressively.
The size of the tumours was measured in two dimensions by means of a slide gauge. The tumour volume, which correlated well with the cell count, was then used for all assessments. The volume was calculated according to the formula “length×breadth×breadth/2” ([a×b^2]/2, a and b represent two diameters arranged at right angles).
The values of the relative tumour volume (RTV) were calculated for each individual tumour by dividing the tumour size on day X with the tumour size on day 0 (at the time of randomization). […]
The inhibition of the increase of the tumour volume (tumour volume of the test group/control group, T/C, in percent) was the final measured value. […]

T1 sequence (P06756 31-889 limits assumed): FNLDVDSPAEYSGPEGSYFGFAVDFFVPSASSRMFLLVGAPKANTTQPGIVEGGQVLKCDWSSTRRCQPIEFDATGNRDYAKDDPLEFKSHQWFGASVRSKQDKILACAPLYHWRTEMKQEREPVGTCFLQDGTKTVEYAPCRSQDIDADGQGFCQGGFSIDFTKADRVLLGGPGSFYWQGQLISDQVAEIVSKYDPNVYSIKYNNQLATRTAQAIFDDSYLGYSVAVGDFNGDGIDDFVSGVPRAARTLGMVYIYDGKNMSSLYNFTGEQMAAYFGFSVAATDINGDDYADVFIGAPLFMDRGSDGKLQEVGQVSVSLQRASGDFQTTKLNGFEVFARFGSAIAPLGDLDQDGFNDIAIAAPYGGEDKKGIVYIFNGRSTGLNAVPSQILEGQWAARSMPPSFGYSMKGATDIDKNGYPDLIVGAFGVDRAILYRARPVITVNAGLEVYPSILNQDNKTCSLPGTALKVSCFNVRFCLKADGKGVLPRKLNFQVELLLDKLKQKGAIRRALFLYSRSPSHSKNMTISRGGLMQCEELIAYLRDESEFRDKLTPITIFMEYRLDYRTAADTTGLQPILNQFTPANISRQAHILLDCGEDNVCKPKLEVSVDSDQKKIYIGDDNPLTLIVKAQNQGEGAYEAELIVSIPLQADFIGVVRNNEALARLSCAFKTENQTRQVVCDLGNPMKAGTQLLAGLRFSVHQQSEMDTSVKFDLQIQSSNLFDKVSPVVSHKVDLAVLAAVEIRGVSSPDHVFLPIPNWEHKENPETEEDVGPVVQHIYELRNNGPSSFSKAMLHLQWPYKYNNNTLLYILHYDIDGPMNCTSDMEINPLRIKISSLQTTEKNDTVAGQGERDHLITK
T1 sequence (P06756 891-1048 partner limits assumed): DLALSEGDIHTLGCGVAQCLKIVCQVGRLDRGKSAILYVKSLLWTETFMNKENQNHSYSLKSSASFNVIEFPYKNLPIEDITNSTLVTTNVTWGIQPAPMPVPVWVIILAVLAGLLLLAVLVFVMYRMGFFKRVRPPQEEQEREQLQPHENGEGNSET
T1 sequence (P05106 27-788): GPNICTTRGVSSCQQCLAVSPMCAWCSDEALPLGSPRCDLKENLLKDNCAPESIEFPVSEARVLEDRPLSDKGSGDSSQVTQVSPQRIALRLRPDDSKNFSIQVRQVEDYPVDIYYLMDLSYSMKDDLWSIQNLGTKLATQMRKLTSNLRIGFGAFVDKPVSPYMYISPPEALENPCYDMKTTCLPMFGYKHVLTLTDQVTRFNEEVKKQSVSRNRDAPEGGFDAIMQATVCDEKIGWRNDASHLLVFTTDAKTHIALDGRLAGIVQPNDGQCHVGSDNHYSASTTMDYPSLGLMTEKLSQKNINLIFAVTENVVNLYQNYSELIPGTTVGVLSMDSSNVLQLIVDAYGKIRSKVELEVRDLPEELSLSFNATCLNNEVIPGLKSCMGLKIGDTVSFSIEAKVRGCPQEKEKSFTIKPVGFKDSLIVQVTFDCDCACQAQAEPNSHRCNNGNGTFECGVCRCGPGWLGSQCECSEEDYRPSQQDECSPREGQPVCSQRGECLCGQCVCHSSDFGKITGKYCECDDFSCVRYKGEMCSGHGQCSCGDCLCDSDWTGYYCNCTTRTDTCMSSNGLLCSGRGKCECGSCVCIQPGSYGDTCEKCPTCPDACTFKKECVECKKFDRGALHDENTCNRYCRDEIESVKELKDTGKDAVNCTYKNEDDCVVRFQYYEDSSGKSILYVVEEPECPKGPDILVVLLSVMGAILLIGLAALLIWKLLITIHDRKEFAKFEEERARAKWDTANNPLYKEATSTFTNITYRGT

| SMILES | IC50 [1] | IC50 [2] | IC50 [3] | IC50 [4] | IC50 [5] | IC50 [6] | IC50 [7] | IC50 [8] | optimal T/C (tumour volume of the test group/control group) [9] |
| --- | --- | --- | --- | --- | --- | --- | --- | --- | --- |
| CC[C@@]1(OC(=O)[C@@H](NC(=O)[C@H](Cc2c[nH]cn2)NC(=S)Nc2ccc(NC(=O)NC(CC(=O)O)c3cccc(NS(=O)(=O)c4cccc(NC(=N)N)c4)c3)cc2)C(C)C)C(=O)OCc2c1cc1n(c2=O)Cc2cc3ccccc3nc2-1 (stereo partly drawn) [Example 3.5] | 0.02 µg/mL | 36 nM | 150 nM | 150 nM | 200 nM | 500 nM | 900 nM | 150 nM | – |
| CC[C@@]1(OC(=O)[C@@H](NC(=O)[C@H](Cc2cnc[nH]2)NC(=S)Nc2cccc(C(CC(=O)O)NS(=O)(=O)c3ccc(-c4cccc(NC(=O)Nc5nc6ccccc6[nH]5)c4)cc3)c2)C(C)C)C(=O)OCc2c1cc1n(c2=O)Cc2cc3ccccc3nc2-1 (stereo partly drawn) [Example 3.8] | 0.025 µg/mL | 25 nM | 200 nM | 200 nM | 350 nM | 400 nM | 800 nM | 200 nM | 15.9 |
| CCCNC(=O)Nc1cccc(S(=O)(=O)Nc2cccc(C(CC(=O)O)NC(=O)Nc3ccc(NC(=S)N[C@@H](Cc4c[nH]cn4)C(=O)N[C@H](C(=O)O[C@]4(CC)C(=O)OCc5c4cc4n(c5=O)Cc5cc6ccccc6nc5-4)C(C)C)cc3)c2)c1 (stereo partly drawn) [Example 3.13] | 0.04 µg/mL | 14 nM | 100 nM | 200 nM | 200 nM | 150 nM | 200 nM | 90 nM | – |
| CCCNC(=O)Nc1cccc(S(=O)(=O)Nc2cccc(C(CC(=O)O)NC(=O)CCCC(=O)N3CCC[C@H]3C(=O)N[C@@H](CC(C)C)C(=O)NCC(=O)N[C@@H](CC(C)C)C(=O)O[C@]3(CC)C(=O)OCc4c3cc3n(c4=O)Cc4cc5ccccc5nc4-3)c2)c1 (stereo partly drawn) [Example 3.23] | 0.006 µg/mL | 355 nM | – | – | – | – | – | – | – |
